According to US20260344662A1, “METHOD FOR INDUCING HIGH-TEMPERATURE STRESS TOLERANCE IN PLANTS” (AJINOMOTO CO., INC., priority 2023, published 2026):

Tests used:
SLAPX = experiment: Example 3: expression of heat stress tolerance-related gene SLAPX (real-time PCR); format: in vivo, tomato (cultivar: Regina); conditions: 5 mM Val; 10 μM IAA; 50 μM PAA; combinations 5 mM Val + 10 μM IAA, 5 mM Val + 50 μM PAA; 24 hours after spraying; n=3; relative to Actin
Description: (§1) Plants of tomato (cultivar: Regina) were used in evaluation of the genes.
(§2) Two tomato seeds were sown in a slit pot having a diameter of 10.5 cm (10.5 cm (top diameter)×8.8 cm (height)) filled with potting soil, and cultivated in a biotron at a temperature of 23 °C, with a light period of 14 hours (6:00 to 20:00) and a dark period of 10 hours (20:00 to 6:00). As the potting soil, a mixture of Kumiai Nippi Engei Baido No. 1 (Nihon Hiryo Co., Ltd.) and vermiculite at 3:1 (volume ratio) was used. After one week, thinning was performed to leave one plant, and cultivation was continued.
(§3) The material was dissolved in water before use. Twenty-five days after the sowing, 0.1% spreading agent “Approach BI” (Kao Corporation) was added to the material treatment solution, and the resulting solution was sprayed over the entire plant. For each treatment group, three tomato plants were used, and 2 mL of the treatment solution per plant was sprayed. Twenty-four hours after the spraying, a 1.5 cm×1.5 cm section was collected as a sample from the second true leaf.
(§4) From each leaf sample collected from tomato, RNA was extracted using a Maxwell™ RSC Plant RNA Kit (Promega) according to the manufacturer's instructions. Subsequently, single-stranded cDNA was synthesized from the extracted RNA using a ReverTra Ace™ qPCR RT Master Mix (TOYOBO). As genes associated with heat stress tolerance in tomato, the following two genes were evaluated: Heat shock factor A2 (HsFA2) and Ascorbate peroxidases (APX). Using the above cDNA as a template, real-time PCR was performed using the primers shown in Table 6, and the expression level of each gene was calculated as a relative expression level with respect to the Actin gene.

tomato [1] = experiment: Example 1: heat stress tolerance of tomato (number of fruits) with Val and/or IAA; format: in vivo, cultivar Regina; conditions: heat stress max 35 °C; foliar spray; Val 5 mM or 10 mM; IAA 10 μM; Val 5 mM & IAA 10 μM
Description: In the present Example, Val (valine) and IAA (indole-3-acetic acid) were applied to tomato either alone or in combination, and heat stress tolerance-inducing effects were evaluated.
• Tomato: cultivar Regina
Two tomato seeds were sown in a pot (Sakata) having a soil diameter of 10.5 cm and containing 350 g of a mixed soil of potting soil (Kumiai No. 1) and vermiculite (potting soil:vermiculite=3:1 (v:v)). Two weeks later, the tomato plants were thinned to leave one plant. Thirty-five days after the sowing, soil fertilization was performed with 100 mL of a 500-fold diluted Hyponex solution. Water supplementation was performed as appropriate.
The non-heat stress treatment+water treatment group (No. 1) was used as a positive control. The heat stress treatment groups included five treatment groups (Nos. 2 to 6). The material treatment and the heat treatment were performed in two separate sets. The first set of material treatment was performed 40 days after the sowing, when flowering of the tomato plants had started. The second set of material treatment was performed 46 days after the sowing. The material treatment was performed by preparing an aqueous material solution containing 0.1% spreading agent “Approach BI”, and performing foliar spraying. To each tomato plant, 6 mL of the aqueous material solution was sprayed. […]

SLHsFA2 = experiment: Example 3: expression of heat stress tolerance-related gene SLHsFA2 (real-time PCR); format: in vivo, tomato (cultivar: Regina); conditions: 5 mM Val; 10 μM IAA; 50 μM PAA; combinations 5 mM Val + 10 μM IAA, 5 mM Val + 50 μM PAA; 24 hours after spraying; n=3; relative to Actin
Description: as §1, §2, §3, §4

[2] = tested on: plant male sterility caused by high temperatures; conditions: in vivo; cited from earlier work
rice = experiment: Example 5: rice pot test, seed weight and seed fertility under heat stress; format: in vivo, cultivar Nipponbare; conditions: PAA 10 μM; for fertile seed weight compared to water treatment (in words) / seed fertility compared to water treatment (in words) / total seed weight compared to water treatment (in words) / Fertile seed weight, relative value to heat treatment + water treatment group / Fertility (seed fertility), relative value to heat treatment + water treatment group / Total seed weight, relative value to heat treatment + water treatment group: Val 5 mM; for Fertile seed weight, relative value to heat treatment + water treatment group / Fertility (seed fertility), relative value to heat treatment + water treatment group / Total seed weight, relative value to heat treatment + water treatment group: heat treatment (38 °C), water = 100%
Description: • Rice cultivar: Nipponbare
Prior to sowing, rice seeds were sterilized with 25% antiformin and 70% ethanol. Filter paper was placed in a Petri dish, and rice seeds were placed on the filter paper. The filter paper was sufficiently wetted with sterile water, and the rice seeds were germinated in a dark place at 25 °C. Six days after the sowing, the germinated rice seeds were planted in a cell tray. As the potting soil in the cell tray, a mixed soil of Kumiai Baido No. 1: vermiculite=7:3 (v/v) was used. The rice plants planted in the cell tray were cultivated in a chamber under the following conditions: 14 h/light period at 28 °C and 10 h/dark period at 22 °C.
On June 20, rice seedlings cultivated in the chamber for 18 days were transplanted to magnet pots, and cultivated until harvest in an outdoor cultivation water tank apparatus. In the magnet pots, 2.3 kg of a potting soil of Kumiai Baido No. 1: vermiculite=7:3 (v/v) was used, and two rice seedlings were transplanted to each pot. During the cultivation, water was appropriately managed. From one month after the transplantation, additional fertilizer was applied with ammonium sulfate and Hyponex three times at intervals of one week.
At the heading stage, one week after the start of heading of rice, material spraying and heat treatment were each performed twice at intervals of one week. The heat treatment was performed about 16 hours after the spraying of a material. Five pots were included in each treatment group as replicates. The material was diluted with water to prepare a treatment solution, and 0.1% spreading agent “Approach BI” (Kao Corporation) was added to the treatment solution, followed by spraying 60 mL per pot of the prepared aqueous material solution onto the whole plants. For the heat treatment, the rice plants were placed in a mini-house for 6 hours from 10:00 to 16:00, and the temperature was about 37 °C to 39 °C. After completion of the heat treatment, the plants were further cultivated, and on October 8, […] after transplanting to Wagner pots, an aboveground part of each plant was cut and harvested.
The cut aboveground parts of the plants, including seeds, were dried for 15 days, and the total seed weight, the fertile seed weight, and the seed fertility were examined. The fertile seed weight is the weight of seeds obtained by removing sterile seeds of empty husks using a threshing machine. From the total seeds, 10 mL of seeds (about 100 to 150 grains) was randomly taken out into a 50-mL Falcon tube, and fertile seeds and sterile seeds were separated from each other, followed by counting their numbers. The proportion (percentage) of the fertile seeds to the total number of seeds was defined as the seed fertility.

tomato [3] = experiment: Example 2: heat stress tolerance of tomato (number and weight of fruits) with Val and/or PAA; format: in vivo, cultivar Regina; conditions: Val 5 mM, PAA 10 μM
Description: In the present Example, Val (valine) and PAA (phenylacetic acid) were applied to tomato plants individually or in combination, and their heat stress tolerance-inducing effects were evaluated.
Same as in Example 1, except that the five treatment groups shown in Table 3 were evaluated under the cultivation conditions shown in Table 4 (the maximum high temperature was 37 °C).

tomato [4] = experiment: Example 4: tomato pot test, harvested fruit weight under heat stress; format: in vivo, tomato: Home Momotaro, rootstock (Boranchi); conditions: PAA 10 μM, Val 5 mM, PAA higher than Val
Description: • Tomato: Home Momotaro, rootstock (Boranchi).
Sandy loam (SL) was filled into a planter at 0.18 m^2/planter, and two tomato plants were planted therein. As a fertilizer, OK-F-1 (OAT Agrio Co., Ltd.) was used. The fertilizer was diluted 2000-fold with water, and applied as appropriate at 2000 mL/plant/application. Topping was performed with one leaf left above the fourth truss, and axillary buds were removed as appropriate. Cultivation was performed in a glasshouse under natural light.
Five treatment groups were evaluated (Table 7). The water-treated non-heat stress treatment group was used as a positive control. The other four treatment groups were subjected to heat treatment. The heat treatment was performed twice. The first treatment was performed for 10 days at the pre-flowering stage of the first truss, and the second treatment was performed for 10 days at the flowering stage of the fourth truss. The heat treatment was performed by opening and closing side windows and roof windows of the glasshouse (with a target maximum temperature of 35 °C in the glasshouse).
The material was applied by spraying onto stems and leaves at 50 mL per plant on the start day of the heat treatment and three days thereafter. To each material, a spreading agent (Approach BI (Kao)) was added to a final concentration of 0.05%.
Harvesting and examination were performed 11 times until the fourth truss matured. […]

plants = conditions: in vivo; cited from earlier work

Structure (SMILES)	expression of SLAPX compared to Mock (water) (SLAPX)	number of tomato fruits compared to heat stress treatment+water treatment group (tomato [1])	expression of SLHsfA2 compared to Mock (water) (SLHsFA2)	reversal of plant male sterility caused by high temperatures [2]	increase in seed fertility (rice; Val 5 mM & PAA 10 μM, heat treatment) [%]	fertile seed weight compared to water treatment (in words) (rice; heat treatment)	seed fertility compared to water treatment (in words) (rice; heat treatment)	total seed weight compared to water treatment (in words) (rice; heat treatment)	Fertile seed weight, relative value to heat treatment + water treatment group (rice) [%]	Fertility (seed fertility), relative value to heat treatment + water treatment group (rice) [%]	Total seed weight, relative value to heat treatment + water treatment group (rice) [%]	number of tomato fruits compared to heat stress treatment+water treatment group (tomato [3])	harvested fruit weight compared to water-sprayed heat stress group (tomato [4])	induction of heat stress tolerance in plants (plants)
O=C(O)Cc1c[nH]c2ccccc12 [IAA, indole-3-acetic acid]	no difference in expression	markedly increased	no difference in expression	function of reversing plant male sterility caused by high temperatures										
O=C(O)Cc1ccccc1 [PAA, phenylacetic acid]	no difference in expression		no difference in expression		≥ 20	neither the treatment with Val alone nor the treatment with PAA alone showed significant differences	increased the seed fertility	neither the treatment with Val alone nor the treatment with PAA alone showed significant differences	105.6	110.8	101.8	no large difference	exceeded the water-sprayed group	
CC(C)[C@H](N)C(=O)O [Val, L-valine]	no difference in expression	markedly increased	no difference in expression			neither the treatment with Val alone nor the treatment with PAA alone showed significant differences	increased the seed fertility	neither the treatment with Val alone nor the treatment with PAA alone showed significant differences	98.7	123.9	93.9	no large difference	exceeded the water-sprayed group	function of inducing heat stress tolerance in plants
